Test results reported in US20240034785A1, “RXR-ALPHA BINDERS AND RXR-ALPHA/PLK1 MODULATORS” (NUCMITO PHARMACEUTICALS CO. LTD., priority 2020, published 2024).

Tests used:
cancer cells = assay: Mitotic progression of cancer cells (FACS analysis); assay type: cell-based; design: inhibitory effect on mitotic progression: RXRα dependence and other cancer cell lines (FACS): dose or concentration left out as unconfirmed
Description: Cells were harvested by trypsin digestion, washed with PBS, and fixed with ice-cold 70% ethanol overnight at 4° C. The fixed cells were then washed twice in PBS and treated for 10 min at room temperature with 0.5 μg/mL 4-6-diamidino-2-phenylindole (DAPI) in PBS and analyzed on a FACSCAN™ flow cytometer. Flow cytometry data were analyzed using CYTEXPERT.

[1] = target: T1, m-RXRα (p-RXRα) interaction with PLK1 (Homo sapiens, UniProt P19793); assay: Co-immunoprecipitation of Myc-RXRα with FLAG-PLK1 in HeLa cells; conditions: 10 μM for 3 hr (FIG. 55)
T1 sequence (P19793 1-462): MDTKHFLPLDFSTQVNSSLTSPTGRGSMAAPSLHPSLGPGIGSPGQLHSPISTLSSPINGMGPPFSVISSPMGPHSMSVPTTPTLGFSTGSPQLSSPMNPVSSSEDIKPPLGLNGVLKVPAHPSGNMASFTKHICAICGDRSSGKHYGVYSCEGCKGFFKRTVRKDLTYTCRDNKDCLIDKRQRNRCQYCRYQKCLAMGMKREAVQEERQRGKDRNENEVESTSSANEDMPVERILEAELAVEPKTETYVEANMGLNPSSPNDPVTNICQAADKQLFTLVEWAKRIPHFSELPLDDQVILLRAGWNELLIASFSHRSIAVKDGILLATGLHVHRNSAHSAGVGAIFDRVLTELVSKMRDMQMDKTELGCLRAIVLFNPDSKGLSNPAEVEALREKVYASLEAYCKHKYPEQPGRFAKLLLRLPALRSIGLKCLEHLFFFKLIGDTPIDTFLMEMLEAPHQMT
Description: Briefly, cells were harvested in a lysis buffer (10 mM Tris, pH 7.4, 150 mM NaCl, 0.5% NP40, 5 mM ethylene diamine tetraacetic acid, containing protease inhibitors). Cell lysates were incubated with an antibody (1 μg) at 4° C. for 2 hr. Immunocomplexes were then precipitated with 30 μL of protein G-Sepharose beads. After an extensive washing with the lysis buffer, the beads were boiled in a sodium dodecyl sulfate (SDS) sample loading buffer and assessed by western blotting.
Cell lysates were boiled in an SDS sample loading buffer, resolved by 10% SDS-polyacrylamide gel electrophoresis (SDS-PAGE), and transferred to PVDF membranes. The membranes were blocked with 5% milk in a Tris buffered saline and TWEEN 20 (TBST)(10 mM Tris-HCl, pH 8.0, 150 mM NaCl, 0.05% TWEEN 20) for 1 hr at room temperature. After washing twice with TBST, the membranes were incubated with primary antibodies in TBST for 1 hr and then washed twice, probed with a horseradish peroxide-linked anti-immunoglobulin (1:5,000 dilution) for 1 hr at room temperature. After three washes with TBST, immunoreactive products were visualized using enhanced chemiluminescence reagents and autoradiography.

HepG2 cells = assay: Centrosome immunofluorescence in metaphase HepG2 cells; assay type: cell-based, human
Description: Cells mounted on glass slides were fixed with methanol at −20° C. for 10 min, then permeabilized with 0.05% Triton X-100 in a PBS buffer for 8 min at 4° C., and blocked with 1% bovine serum in PBS for 30 min at room temperature, followed by incubation with primary antibodies at room temperature for 3 hr and detected by FITC-labeled anti-IgG (1:200), anti-goat IgG conjugated with Cy3 (1:200) at room temperature for 1 hr. The cells were costained with 40,6-diamidino-2-phenylindole (DAPI) (1:10,000 dilution) to visualize nuclei. The images were taken under a LEICA TCS SP8 confocal laser scanning microscope system or an LSM-510 confocal laser scanning microscope system.

[2] = system: HepG2 liver cancer and THLE-2 nontumorous liver cells; assay: Western blot analysis of HepG2 and THLE-2 cells; assay type: cell-based, human; conditions: 10 μM for 12 hr (FIG. 68)
[3] = system: primary mouse liver tumor cells; assay: Western blot analysis of primary mouse liver tumor cells; assay type: cell-based; conditions: 10 μM for 24 hr (FIG. 65)
Description: Briefly, a liver from a mouse was removed and washed in 1×PBS. The tumor tissue was resected from the liver and transferred to 5 mL PBS/2% FBS. The tumor tissue was minced with fine sterile scissors into fragments, followed by addition of 5 mL pre-warmed 2 mg/mL collagenase type IV/dispase. After incubated for 30 min at 37° C., the tumor cells were filtered through a 70 μm cell strainer and spined at 1,000 rpm for 5 min at 4° C. The pellet containing the liver tumor cells was then resuspended in 5 mL of 1×RBC lysis buffer and incubated on ice for 5 min. The tumor cells were spined and washed by 1×PBS/2% FBS for 2-3 times. Finally, the tumor cells were resuspended with DMEM (10% FBS, 40 ng/mL EGF, 0.008 ng/mL IGF-II) and plated in culture dishes that were pre-coated with collagen.

[4] = target: T2, RXRα heterodimerization with RARγ (Homo sapiens, UniProt P19793); assay: Co-immunoprecipitation of Myc-RXRα with FLAG-RARγ in HeLa cells; assay type: cell-based; conditions: 10 μM for 3 hr (FIG. 55)
T2 construct: expressed in transfected cells; host or cells: HeLa
T2 sequence (P19793 1-462): T1 sequence (P19793 1-462)
T2 sequence (P13631 1-454 partner): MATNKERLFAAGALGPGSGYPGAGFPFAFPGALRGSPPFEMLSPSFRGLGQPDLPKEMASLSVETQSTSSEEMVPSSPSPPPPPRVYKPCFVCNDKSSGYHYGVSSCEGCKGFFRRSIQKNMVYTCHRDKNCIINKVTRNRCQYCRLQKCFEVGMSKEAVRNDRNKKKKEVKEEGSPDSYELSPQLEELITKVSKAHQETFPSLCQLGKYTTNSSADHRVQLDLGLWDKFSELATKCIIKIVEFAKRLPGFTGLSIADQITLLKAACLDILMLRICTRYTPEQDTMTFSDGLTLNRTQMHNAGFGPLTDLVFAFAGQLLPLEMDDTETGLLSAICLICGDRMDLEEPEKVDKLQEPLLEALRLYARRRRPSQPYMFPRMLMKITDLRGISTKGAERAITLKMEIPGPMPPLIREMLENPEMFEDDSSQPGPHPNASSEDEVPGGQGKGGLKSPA

HeLa cells [5] = assay: Asynchronous or thymidine-synchronized HeLa cells incubated with compound A1; assay type: cell-based, human
Description: Cells were synchronized at GUS boundary by a double thymidine block. Briefly, cells cultured in a medium containing 2 mM thymidine for 16 hr were released into a normal medium for 8 hr, subjected to a second thymidine block for 16 hr, and then released into a fresh medium again. Alternatively, cells were synchronized at prometaphase by a thymidine-nocodazole arrest (an 18-hr thymidine arrest and a 5-hr release, followed by a 5-hr 100 ng/mL nocodazole arrest).

B16F10 and 4T1 cells = assay: Mitotic arrest and chromosome misalignment in B16F10 and 4T1 tumor cells; assay type: cell-based, mouse
HeLa cells [6] = assay: MT nucleation activity at the centrosomes in cold-treated, reheated HeLa cells; assay type: cell-based, human; conditions: reheated at 37° C., 10 μM (FIG. 59)
cancer cell lines = assay: Western blot analysis of mitotic arrest, apoptosis and SAC activation in cancer cell lines; assay type: cell-based, human

COc1ccc(CC(=O)N/N=C/c2c(O)ccc3ccccc23)cc1 [Compound A1, (E)-N′-((2-hydroxynaphthalen-1-yl)methylene)-2-(4-methoxyphenyl)acetohydrazide]
mitotic progression of cancer cells (cancer cells): inhibited mitotic progression of cancer cells
inhibitory effect on mitotic progression: RXRα dependence and other cancer cell lines (FACS) (cancer cells; indicated cell lines): RXRα dependent and observed in many other cancer cell lines
p-RXRα interaction with PLK1 (CoIP) [1]: inhibited
centrosomal aberrations (HepG2 cells): caused centrosomal aberrations
level of PLK1-pT210 at the centrosome (HepG2 cells; HepG2 cells, 10 μM for 2 hr after release from TT block for 10 hr (FIG. 57)): reduced the level of PLK1-pT210
centrosome maturation (γ-tubulin at the centrosomes) (HepG2 cells; HepG2 cells, 10 μM for 2 hr after release from TT block for 10 hr (FIG. 58)): suppressed centrosome maturation
inducing G2/M arrest, SAC activation, and apoptosis in HepG2 versus THLE-2 cells [2]: differential effects
G2/M arrest, DNA damage response, and apoptosis ([3]; primary liver cancer cells): induced G2/M arrest, DNA damage response, and apoptosis
induction of mitotic arrest and apoptosis ([3]; primary mouse liver tumor cells): observed
RXRα heterodimerization with RARγ (CoIP) [4]: no effect
effectiveness in asynchronous versus synchronized cells (HeLa cells [5]; HeLa cells, 10 μM for 24 hr (FIG. 64)): more effective in asynchronous cells (AS) than in synchronized GUS cells
cell cycle progression and fate of synchronized HeLa cells upon treatment (HeLa cells [5]; synchronized HeLa cells): progressed through S phase normally and arrested in mitotic phase, which was followed by apoptosis
chromosomal aberrations (chromosome misalignment) (B16F10 and 4T1 cells; 10 μM for 2 hr (FIG. 67)): chromosomal aberrations
mitotic arrest (B16F10 and 4T1 cells; 10 μM for 6 hr (FIG. 66)): caused mitotic arrest
α-tubulin nucleation (MT nucleation activity at the centrosomes) (HeLa cells [6]): inhibited α-tubulin nucleation
apoptosis of cancer cells (cancer cell lines): induced apoptosis of cancer cells in a dose-dependent and RXRα-dependent manner
activation of the spindle assembly checkpoint (SAC), mobility-shifted BubR1 (cancer cell lines; FIGS. 61, 62 and 68): accompanied with the activation of the spindle assembly checkpoint (SAC)
nuclear morphology (mitotic catastrophe) (cancer cell lines; cancer cells treated with compound A1): exhibited multi-lobular, giant nuclear and/or highly fragmented/bursted nuclei
induction of mitotic arrest and apoptosis (cancer cell lines; various cancer cell lines (HepG2, Bel-7402, SK-Hep-1), 12 hr (FIGS. 61 and 62)): observed
